Laboratory results: patent publication US11236124B2, “Method and composition for hydrolyzing eggshell membrane” (EGGNOVO S.L., priority 2017, dated 2022)

B1: Papain: protease of plant origin with endopeptidase activity from the group of cysteine proteases (protein, UniProt P00784 134-345, looked up)
Papain: IPEYVDWRQKGAVTPVKNQGSCGSCWAFSAVVTIEGIIKIRTGNLNEYSEQELLDCDRRSYGCNGGYPWSALQLVAQYGIHYRNTYPYEGVQRYCRSREKGPYAAKTDGVRQVQPYNEGALLYSIANQPVSVVLEAAGKDFQLYRGGIFVGPCGNKVDHAVAAVGYGPNYILIKNSWGTGWGENGYIRIKRGTGNSYGVCGLYTSSFYPVKN

Columns and labels:
Type in all cases: biochemical
eggshell membrane [1] = test: Testing of denaturing agents for eggshell membrane dissolution; settings: denaturing agent used for eggshell membrane hydrolysis
eggshell membrane [2] = test: Eggshell membrane solubilization with different enzymes and reducing agents (Example 1); settings: 10 mg eggshell membrane/ml
Method: A solution for solubilizing eggshell membrane was prepared at a ratio of 10 mg of eggshell membrane/ml of solution. Said solution comprised a denaturing agent, and more specifically a denaturing agent having detergent properties and an amphiphilic nature such as SDS, at a concentration of 0.5-5%. The solution also comprised a reducing agent, for which solutions of the following reducing agents were prepared at a concentration of 100 mM-1 M: sodium sulfite (Na2SO3), sodium hydrosulfite (Na2S2O4), sodium hydroxymethanesulfinate (HOCH2SO2Na), sodium metabisulfite (Na2S2O5), and dithiothreitol (DTT); these solutions were tested successively. Finally, a suitable buffer was added for maintaining the pH depending on the enzyme that was going to be used, having a concentration of 25-50 mM. Once the pH was adjusted with a pH-meter to the optimum pH for each enzyme, the enzyme previously prepared according to the manufacturer's specification at a concentration of 1% was added to the solution, such that the final concentration of the enzyme with respect to the total solution was 0.05-0.5%. The same was performed with each of the enzymes used in the present example.
Once all the components were mixed and homogenized, said mixture was incubated at the maximum temperature of activity of each enzyme. The level of hydrolysis was assessed after 1, 12, and 24 hours of incubation and the results were compared against a control that is performed and only differs from the test solutions by the absence of enzyme.

eggshell membrane [3] = test: Eggshell membrane solubilization with papain at different Na2S2O5 concentrations, with or without SDS (Example 2); settings: 38° C., 12 h, 10 mg membrane/ml
Method: Specifically, a solution for solubilizing 10 mg of eggshell membrane/ml of solution was prepared. Said solution only contained 100 mM sodium metabisulfite (Na2S2O5) (1). Three other similar solutions were prepared with an increasing order of concentration of Na2S2O5, i.e., 5 mM (2), 50 mM (3), and 100 mM (4), but in this case they contained 0.5-5% SDS in 50 mM HEPES buffer adjusted to pH 6.2 with a pH-meter. It was verified that the optimum range of sodium metabisulfite (Na2S2O5) for the present invention is between 50 and 150 mM. Papain previously activated in a 0.15 M sodium chloride solution was added such that the final concentration of the enzyme in the mixture was 0.05-0.5%. Once all the components were mixed and homogenized, said mixture was incubated at 38° C. for 12 h. The level of hydrolysis was evaluated after 12 hours of incubation and the results were compared against a control that is performed and only differs from the test solutions by the absence of enzyme.

eggshell membrane [4] = test: Hydrolyzation of different amounts of eggshell membrane with 0.1% papain (Example 3); settings: papain 0.1%, 12 h, 100 mM Na2S2O5, SDS, pH 6.2, 38° C.
Method: Specifically, different solutions with different amounts of eggshell membrane were prepared such that final concentrations with respect to the total solution volume of 20, 30, 40, 50, 70, 100, and 150 mg of eggshell membrane/ml of solution were obtained. The solution contained 100 mM sodium metabisulfite (Na2S2O5), 0.5-5% SDS in 50 mM HEPES buffer adjusted to pH 6.2 with a pH-meter. 1% papain previously activated in a 0.15 M sodium chloride solution was then added such that the concentration of the enzyme with respect to the final volume of the mixture was 0.05-0.5%. Once all the components were mixed and homogenized, said mixture was incubated at 38° C. for 12 h and the results were compared against a control that is performed and only differs from the test solutions by the absence of enzyme. A clear, amber-colored solution was obtained, the color of which intensifies as the membrane concentration increases, in addition to the presence of a precipitate increasing, which indicates a lower level of hydrolysis.

[5] = SDS + Na2S2O4, 24 h, pH optimum of each enzyme
[6] = SDS + Na2SO3, 24 h, pH optimum of each enzyme
[7] = SDS + DTT, 24 h, pH optimum of each enzyme
[8] = SDS + HOCH2SO2Na, 24 h, pH optimum of each enzyme
[9] = SDS + Na2S2O5, 24 h, pH optimum of each enzyme

Molecule	dissolution results with the denaturing agent (eggshell membrane [1])	% solubilized (eggshell membrane [2]; SDS + DTT, 1 h, pH 6.2) [%]	% solubilized (eggshell membrane [2]; SDS + HOCH2SO2Na, 12 h, pH 6.2) [%]	% solubilized (eggshell membrane [2]; [5]) [%]	% solubilized (eggshell membrane [2]; SDS + Na2S2O5, 1 h, pH 6.2) [%]	% solubilized (eggshell membrane [2]; [6]) [%]	% solubilized (eggshell membrane [2]; [7]) [%]	% solubilized (eggshell membrane [2]; [8]) [%]	% solubilized (eggshell membrane [2]; [9]) [%]	also measured
CCCCCCCCCCCCOS(=O)(=O)[O-].[Na+] [SDS, sodium lauryl sulfate]	excellent results	–	–	–	–	–	–	–	–	–
NC(N)=O [urea]	without obtaining satisfactory dissolution results	–	–	–	–	–	–	–	–	–
Bromelain	–	100	100	0	100	0	–	–	–	–
Ficin	–	–	–	0	–	0	50	0	50	–
Pepsin	–	–	–	0	–	0	0	0	0	–
B1	–	100	100	0	100	0	–	–	–	% solubilized (eggshell membrane [3]; (1) Na2S2O5 100 mM, no SDS): 0%; % solubilized (eggshell membrane [3]; (2) SDS + Na2S2O5 5 mM, pH 6.2): 0%; % solubilized (eggshell membrane [3]; (3) SDS + Na2S2O5 50 mM, pH 6.2): 70%; % solubilized (eggshell membrane [3]; (4) SDS + Na2S2O5 100 mM, pH 6.2): 100%; % of hydrolyzation (eggshell membrane [4]; membrane 20 mg/ml): 100%; % of hydrolyzation (eggshell membrane [4]; membrane 30 mg/ml): 100%; % of hydrolyzation (eggshell membrane [4]; membrane 50 mg/ml): 100%; % of hydrolyzation (eggshell membrane [4]; membrane 70 mg/ml): 100%; % of hydrolyzation (eggshell membrane [4]; membrane 100 mg/ml): 90%; % of hydrolyzation (eggshell membrane [4]; membrane 150 mg/ml): 80%
